Where “and” joins values, the source holds several entries; their conditions need not be identical. Equal entries are not always repeated.
Test: DLS particle size tracking around spray drying (nanoemulsion, solubilized carrier, pre-spray dried mixture, re-hydrated powder)
Assay type: physicochemical
Details: solubilized carrier alone, 0.4 g/ml
Description: Particle size of all nanoemulsions was measured in water solution at 25° C. using dynamic light scattering (DLS). All samples in the present disclosure have been analyzed at a dilution of 1/20 in purified water using a LiteSizer™ (Anton Paar GmbH, Germany).
The resulting spray dried emulsion powder was analyzed by performing a rehydration and then performing a visual inspection for turbidity and DLS analysis for particle size tracking of the generated emulsion (see Table 9).

OC[C@@H](O)[C@@H](O)[C@H](O)[C@H](O)CO [Pearlitol (Mannitol), Mannitol]
Particle Size Carrier: 287 nm, poor signal and 225 nm, poor signal

Source: patent US20220296526A1, “CANNABINOID COMPOSITIONS, METHODS OF MAKING SAME AND USES THEREOF” (HEXO OPERATIONS INC., priority 2019, published 2022)
